Results on 16 compounds are retold here after ChEMBL document CHEMBL1122763, “Synthesis and biological activity of certain 3,4-disubstituted pyrazolo[3,4-d]pyrimidine nucleosides” (J Med Chem, 1984).

Usually Inhibition stands for the change of the read-out against control, counted positive when it falls. Lower therefore signals a response near the control.

For data set [1], the system named is B16. The data set is described as follows: 50% inhibition of the tumor cell growth as compared to the untreated controls against B16 melanoma cells; Inactive. The format is functional, cell-based. As to conditions: Mus musculus.
Data set [2] has as its system Vero. In words: Virus rating was determined by comparing cytopathic effect against vero cells after infection with Vaccinia virus. In kind it is functional, Chlorocebus sabaeus. On the technique in general: Cytopathic effects are the visible damage that an infection or toxin causes in cultured cells.
The subject of data set [3] is Vero. In words: Virus rating was determined by comparing cytopathic effect against vero cells after infection with Vesicular stomatitis virus. The format is functional, Chlorocebus sabaeus.
Data set [4] relates to P388. In words: Percent inhibition at a concentration 10 E -4 against P388 lymphoid neoplasm cells; Inactive. The format is functional, cell-based. As to conditions: Mus musculus.
In data set [5] the test system is L1210. In words: Percent inhibition at a concentration 10 E -4 against L1210 leukemia cells; Inactive. The format is functional, cell-based. The settings on record: Mus musculus.
Data set [6] relates to Lewis lung carcinoma cell line. In words: 50% inhibition of the tumor cell growth as compared to the untreated controls against Lewis lung cells; Inactive. The format is functional, cell-based. As to conditions: Mus musculus.
Data set [7] deals with Leishmania tropica. In words: Concentration in the culture media that produced 50% inhibition of the leishmania tropica growth. In kind it is functional. As to conditions: for EC50: read-out: ED50 (the source's name).
Data set [8] has as its system Vero. The data set is described as follows: Virus rating was determined by comparing cytopathic effect against vero cells after infection with Parainfluenza type 3 (para 3). In kind it is functional, Chlorocebus sabaeus.
The test system of data set [9] is Vero. In words: Virus rating was determined by comparing cytopathic effect against vero cells after infection with Herpes simplex virus-1. The format is functional, Chlorocebus sabaeus.
Data set [10] can be described thus: Toxic level was determined. The format is ADME.
Data set [11] relates to Lewis lung carcinoma cell line. In words: 50% inhibition of the tumor cell growth as compared to the untreated controls against Lewis lung cells. The format is functional. The settings on record: Mus musculus, read-out: ID50 (the source's name).
The test system of data set [12] is B16. The data set is described as follows: 50% inhibition of the tumor cell growth as compared to the untreated controls against B16 melanoma cells. In kind it is functional. As to conditions: Mus musculus, read-out: ID50 (the source's name).
The subject of data set [13] is P388. The data set is described as follows: Compound was evaluated for inhibition of P388 lymphoid neoplasm cells. The format is functional. As to conditions: Mus musculus, read-out: ID50 (the source's name).
The test system of data set [14] is L1210. The data set is described as follows: Compound was evaluated for inhibition of L1210 leukemia cells. In kind it is functional. As to conditions: Mus musculus, read-out: ID50 (the source's name).
Data set [15] deals with P388. In words: Percent inhibition at a concentration 10 E -4 against P388 lymphoid neoplasm cells. The format is functional, Mus musculus.
Data set [16] relates to L1210. The data set is described as follows: Percent inhibition at a concentration 10 E -4 against L1210 leukemia cells. In kind it is functional, Mus musculus.
A short description of data set [17]: (§1) Toxic level was determined; Non toxic. The format is functional.
Data set [18] has as its system P388. In words: Inhibition at a concentration 10 E -4 against P388 lymphoid neoplasm cells; Inactive. In kind it is functional, cell-based. The settings on record: Mus musculus.
The subject of data set [19] is P388. In words: Compound was evaluated for inhibition against P388 lymphoid neoplasm cells. The format is functional. As to conditions: Mus musculus, read-out: ID50 (the source's name).
The subject of data set [20] is L1210. The data set is described as follows: Compound was evaluated for inhibition against L1210 leukemia cells. In kind it is functional. As to conditions: Mus musculus, read-out: ID50 (the source's name).
The test system of data set [21] is Leishmania tropica. In words: Concentration in the culture media that produced 50% inhibition of the leishmania tropica growth; Range is 76-190. The settings on record: read-out: ED50 (the source's name). The format is functional.
The test system of data set [22] is B16. In words: Percent inhibition of the tumor cell growth as compared to the untreated controls against B16 melanoma cells at a concentration of 10 E-4. The format is functional, Mus musculus.
The nature of data set [23]: as §1. The format is ADME.

Activity calls are given as the source filed them. The rule behind the calls is not given here.

Turning to `Nc1nn(C2O[C@H](CO)[C@@H](O)[C@H]2O)c2nc[nH]c(=O)c12` (some centres not stated), the ID50 entry in data set [1] and in [6] was “inactive” each time. Further, the Virus rating came to 0.45 in [2], 0 in data set [3], 0.3 in data set [8] and 0.15 in [9]. Moreover, the inhibition entry in data set [4] and in [5] was “inactive” each time. Further, the EC50 in [7] is above 177 µM. The compound further had a Toxic level in [10] of 5 mM.

Regarding `NC(=S)c1nn(C2O[C@H](CO)[C@@H](O)[C@H]2O)c2nc[nH]c(=O)c12` (some centres not stated), the IC50 in [11] is 2.4 µM; in data set [12] it was 16 µM; in data set [13] it was 0.6 µM; in data set [14], 0.36 µM. The Virus rating is 0.4 in data set [2], 1.15 in [8] and 0 in data set [9]. Further, in data set [10], the Toxic level was determined as 5 mM.

On to `O=c1[nH]cnc2c1c(Br)nn2C1O[C@H](CO)[C@@H](O)[C@H]1O` (some centres not stated), for which the Inhibition in data set [15] was determined as 28%; in [16], 25%. The IC50 in [7] (read-out: ID50 (the source's name)) was above 15 µM. Moreover, the Virus rating in [8] worked out at 0.03; in [9], 0.2. The compound further gave a Toxic level in data set [10] of 5 mM.

Turning to `Cl.N=C(N)c1nn(C2O[C@H](CO)[C@H](O)[C@@H]2O)c2ncnc(O)c12` (some centres not stated), the IC50 in data set [11] was determined as 6.4 µM; in data set [12], 3.8 µM; in data set [13], 0.37 µM; in data set [14], 0.23 µM. In addition, the Virus rating amounted to 0.31 in data set [2], 0 in data set [3], 1.1 in data set [8] and 0.2 in [9]. In data set [10], this compound had a Toxic level of 5 mM.

In data set [17], `Nc1ncnc2c1c(N)nn2C1O[C@H](CO)[C@@H](O)[C@H]1O` (some centres not stated) came in with a Toxic level of 5 mM. Besides, the ID50 entry in data set [18] is “inactive”. The Virus rating in data set [2] is 0.4; in data set [3] it was 0.25; in [8] it was 0.45; in data set [9], 1.3.

For `N#Cc1nn(C2O[C@H](CO)[C@@H](O)[C@H]2O)c2nc[nH]c(=O)c12` (some centres not stated), the Toxic level in [17] amounted to 5 mM. In addition, the IC50 worked out at 0.46 µM in [19], 250 µM in data set [11], 7 µM in data set [12] and 0.2 µM in [20]. Moreover, the Virus rating is 0.55 in data set [2], 0 in data set [3], 0.32 in [8] and 0.25 in data set [9].

Compound `CSc1nn(C2O[C@H](CO)[C@@H](O)[C@H]2O)c2nc[nH]c(=O)c12` (some centres not stated) came in with an Inhibition in data set [15] of 16%. In addition, the Virus rating in data set [2] was 0; in data set [8] it was 0.11; in [9], 0.16. The inhibition entry in data set [5] was “inactive”. In addition, in data set [10], the Toxic level is 5 mM.

`N=C(NO)c1nn(C2O[C@H](CO)[C@@H](O)[C@H]2O)c2nc[nH]c(=O)c12` (some centres not stated): the Toxic level in [17] turned out to be 5 mM. The Virus rating was 0.12 in data set [2], 0.35 in data set [3], 0.2 in data set [8] and 0.1 in [9]. In addition, the ID50 result in data set [4] and in data set [5] was “inactive” in each case.

Turning to `OC[C@H]1OC(n2ncc3c(S)ncnc32)[C@H](O)[C@@H]1O` (some centres not stated), in data set [7], the EC50 was determined as 72 µM.

Compound `O=c1[nH]cnc2c1cnn2[C@@H]1O[C@H](CO)[C@@H](O)[C@H]1O` showed a Toxic level in [17] of 5 mM. Also, the Virus rating in data set [3] came out at 0.3; in data set [8], 0.2; in [9] it was 0. The EC50 in data set [21] stood at 76 µM.

Take `NC(=O)c1nn(C2O[C@H](CO)[C@@H](O)[C@H]2O)c2nc[nH]c(=O)c12` (some centres not stated): the IC50 in data set [11] turned out to be 20 µM; in data set [13] it was 18 µM; in data set [14], 13 µM. The compound also yielded an Inhibition in data set [22] of 37%. Besides, the Virus rating in data set [2] was determined as 0.4; in data set [3] it was 0; in [8], 0.3; in [9], 0. Also, the Toxic level in data set [10] stood at 5 mM.

For `N#Cc1nn(C2O[C@H](CO)[C@@H](O)[C@H]2O)c2ncnc(N)c12` (some centres not stated), in data set [14], the IC50 was 0.079 µM.

As for `Nc1ncnc2c1c(Br)nn2C1O[C@H](CO)[C@@H](O)[C@H]1O` (some centres not stated), the Virus rating in data set [2] is 0.1; in data set [3] it was 0; in [8], 0.2; in data set [9], 0.4. The Inhibition in data set [16] was found to be 28%. Further, in data set [4], the inhibition entry was “inactive”. The compound also yielded a Toxic level in [10] of 0.5 mM.

In data set [15], `CNc1nn(C2O[C@H](CO)[C@@H](O)[C@H]2O)c2nc[nH]c(=O)c12` (some centres not stated) registered an Inhibition of 20%. Further, the Virus rating in data set [2] is listed as 0.2; in data set [8], 0.1; in data set [9] it was 0. For the same compound, the inhibition entry in data set [5] is “inactive”. The Toxic level in data set [10] worked out at 1.6 mM.

`N#Cc1nn(C2O[C@H](CO)[C@@H](O)[C@H]2O)c2ncnc(S)c12` (some centres not stated) displayed a Toxic level in data set [23] of 5 mM. The Virus rating in data set [2] came to 1.24; in data set [3], 0.56; in data set [8], 1.1; in [9], 1. The results for the IC50 in data set [13] and in data set [14] were 0.32 µM and 0.14 µM, respectively.

`O=Nn1c(=O)c2c(O)ncnc2n1C1O[C@H](CO)[C@@H](O)[C@H]1O` (some centres not stated): the IC50 in [11] stood at 2.5 µM; in data set [12], 80 µM; in [13] it was 0.16 µM; in [14], 0.43 µM. The Virus rating in data set [2] amounted to 0.8; in data set [3] it was 0; in data set [8], 0.45; in data set [9], 0.35. Further, in [7], the EC50 was above 160 µM. Moreover, in [10], the Toxic level is 5 mM.
